Reference: patent US10028966B2 (Avalyn Pharma Inc., priority 2014, dated 2018)
In brackets after ≈: the same amount, converted by molar mass. Marks after values point to notes of the source that are not given here.

Key:
[1] = Buffer and pH effects study: pirfenidone saturation solubility; type: physicochemical; details: thermodynamic from solid
Method: The sample was agitated at ambient temperature overnight. The sample was visually inspected, appearance recorded, centrifuged to sediment any un-dissolved material, and the supernatant withdrawn via syringe through a 0.22 μm PVDF filter. […] The remaining filtered sample was split into three equal volumes in glass vials and placed at 25° C./60 RH, 40° C./75 RH and refrigeration. Samples were wrapped in aluminum foil to reduce light exposure. After the first night of incubation, samples were briefly visually inspected for any signs of discoloration or precipitate formation.

[2] = Co-solvent and surfactant effects on pirfenidone saturation solubility; type: physicochemical; details: thermodynamic from solid;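 note: samples equilibrated by overnight agitation at ambient temperature, with solubility taken from the supernatant after undissolved solid was removed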
Method: Each sample was agitated at ambient temperature overnight. The samples were visually inspected and appearance recorded. Samples were centrifuged to sediment any un-dissolved material and the supernatant withdrawn via syringe through a 0.22 μm PVDF filter. […] The remaining filtered sample was split into three equal volumes in glass vials and placed at 25° C./60 RH, 40° C./75 RH and refrigeration. Samples are wrapped in aluminum foil to reduce light exposure. After the first night of incubation, samples are briefly visually inspected for any signs of discoloration or precipitate formation.

[3] = Osmolality determination and nebulization for taste testing, throat irritation and cough response; details: for Cough Response? / Throat Irritation?: nebulized
Description: Selected formulations were subjected to osmolality determination and nebulization for taste testing and throat irritation and or cough response.

[4] = Stability assessment of pirfenidone formulations at 25°C/60% RH and 40°C/75% RH; type: physicochemical; details: 25° C./60% RH; target 1 mg/mL; 5 mM phosphate buffer pH 6.5 plus 1% (v/v) EtOH, 2% (v/v) PG
[5] = 43.7 mg/mL pirfenidone, 8% EtOH, 16% PG, 0 mM sodium saccharin, 76% phosphate buffer (5 mM), pH 7.0
[6] = 43.7 mg/mL pirfenidone, 8% EtOH, 16% PG, 0.3 mM sodium saccharin, 76% phosphate buffer (5 mM), pH 7.0
[7] = 27.2 mg/mL pirfenidone, 4% EtOH, 8% PG, 88% phosphate buffer (5 mM), pH 6.6
[8] = 34.7 mg/mL pirfenidone, 6% EtOH, 12% PG, 82% phosphate buffer (5 mM), pH 7.0

Compound: Cc1ccc(=O)n(-c2ccccc2)c1 [pirfenidone, 5-methyl-1-phenyl-2-(1H)-pyridone]
- solubility ([1]; citrate buffer, pH 4, aqueous buffer, Citrate buffer 5 mM, pH 4, ambient temperature overnight): 18.4 mg/mL (≈ 99.3 mM)
- solubility ([1]; citrate buffer, pH 4, aqueous buffer, Citrate buffer 50 mM, pH 4, ambient temperature overnight): 18.1 mg/mL (≈ 97.7 mM)
- solubility ([1]; citrate buffer, pH 6, aqueous buffer, Citrate buffer 5 mM, pH 6, ambient temperature overnight): 18.4 mg/mL (≈ 99.3 mM)
- solubility ([1]; citrate buffer, pH 6, aqueous buffer, Citrate buffer 50 mM, pH 6, ambient temperature overnight): 16.4 mg/mL (≈ 88.5 mM)
- solubility ([1]; phosphate buffer, pH 6, aqueous buffer, Phosphate buffer 5 mM, pH 6, ambient temperature overnight): 18.3 mg/mL (≈ 98.8 mM)
- solubility ([1]; phosphate buffer, pH 6, aqueous buffer, Phosphate buffer 50 mM, pH 6, ambient temperature overnight): 17.2 mg/mL (≈ 92.9 mM)
- solubility ([1]; phosphate buffer, pH 7.5, aqueous buffer, Phosphate buffer 5 mM, pH 7.5, ambient temperature overnight): 19 mg/mL (≈ 103 mM)
- solubility ([1]; phosphate buffer, pH 7.5, aqueous buffer, Phosphate buffer 50 mM, pH 7.5, ambient temperature overnight): 16.3 mg/mL (≈ 88 mM)
- solubility ([1]; water, pH 7.9, water, buffer 0 mM, pH 7.9, ambient temperature overnight): 18.4 mg/mL (≈ 99.3 mM)
- solubility ([2]; aqueous co-solvent/surfactant solvent system, pH 4.4, aqueous with cosolvent or surfactant or cyclodextrin, 4% Gly, 0.04% PS80, 96.0% citrate buffer (10 mM), pH 4.4): 17.6 mg/mL (≈ 95 mM)
- solubility ([2]; aqueous co-solvent/surfactant solvent system, pH 4.5, aqueous with cosolvent or surfactant or cyclodextrin, 4% EtOH, 0.04% PS80, 96.0% citrate buffer (10 mM), pH 4.5): 21.9 mg/mL (≈ 118 mM)
- solubility ([2]; aqueous co-solvent/surfactant solvent system, pH 4.5, aqueous with cosolvent or surfactant or cyclodextrin, 4% EtOH, 0.1% CPB, 95.9% citrate buffer (10 mM), pH 4.5): 20.4 mg/mL (≈ 110 mM)
- solubility ([2]; aqueous co-solvent/surfactant solvent system, pH 4.5, aqueous with cosolvent or surfactant or cyclodextrin, 8% PG, 0.04% PS80, 92.0% citrate buffer (10 mM), pH 4.5): 23.2 mg/mL (≈ 125 mM)
- solubility ([2]; aqueous co-solvent/surfactant solvent system, pH 4.5, aqueous with cosolvent or surfactant or cyclodextrin, 8% PG, 0.1% CPB, 91.9% citrate buffer (10 mM), pH 4.5): 21 mg/mL (≈ 113 mM)
- solubility ([2]; aqueous co-solvent/surfactant solvent system, pH 4.6, aqueous with cosolvent or surfactant or cyclodextrin, 8% PG, 0.04% PS80, 92.0% water, pH 4.6): 23.4 mg/mL (≈ 126 mM)
- solubility ([2]; aqueous co-solvent/surfactant solvent system, pH 4.7, aqueous with cosolvent or surfactant or cyclodextrin, 4% EtOH, 0.04% PS80, 96.0% water, pH 4.7): 22.5 mg/mL (≈ 121 mM)
- solubility ([2]; aqueous co-solvent/surfactant solvent system, pH 4.9, aqueous with cosolvent or surfactant or cyclodextrin, 4% EtOH, 0.1% CPB, 95.9% water, pH 4.9): 20.2 mg/mL (≈ 109 mM)
- solubility ([2]; aqueous co-solvent/surfactant solvent system, pH 4.9, aqueous with cosolvent or surfactant or cyclodextrin, 4% Gly, 0.04% PS80, 96.0% water, pH 4.9): 20 mg/mL (≈ 108 mM)
- solubility ([2]; aqueous co-solvent/surfactant solvent system, pH 5, aqueous with cosolvent or surfactant or cyclodextrin, 8% PG, 0.1% CPB, 91.9% water, pH 5.0): 22.3 mg/mL (≈ 120 mM)
- solubility ([2]; aqueous co-solvent/surfactant solvent system, pH 5.8, aqueous with cosolvent or surfactant or cyclodextrin, 4% EtOH, 8% PG, 0.04% PS80, 88.0% water, pH 5.8): 28.9 mg/mL (≈ 156 mM)
- solubility ([2]; aqueous co-solvent/surfactant solvent system, pH 6.1, aqueous with cosolvent or surfactant or cyclodextrin, 4% EtOH, 0.1% CPB, 95.9% water, pH 6.1): 23.9 mg/mL (≈ 129 mM)
- solubility ([2]; aqueous co-solvent/surfactant solvent system, pH 6.2, aqueous with cosolvent or surfactant or cyclodextrin, 0.1% CPB, 99.9% water, pH 6.2): 20 mg/mL (≈ 108 mM)
- solubility ([2]; aqueous co-solvent/surfactant solvent system, pH 6.2, aqueous with cosolvent or surfactant or cyclodextrin, 4% EtOH, 8% PG, 88.0% water, pH 6.2): 30 mg/mL (≈ 162 mM)
- solubility ([2]; aqueous co-solvent/surfactant solvent system, pH 6.2, aqueous with cosolvent or surfactant or cyclodextrin, 8% PG, 0.1% CPB, 91.9% water, pH 6.2): 23.4 mg/mL (≈ 126 mM)
- solubility ([2]; aqueous co-solvent/surfactant solvent system, pH 6.5, aqueous with cosolvent or surfactant or cyclodextrin, 0.04% PS80, 100.0% water, pH 6.5): 19.9 mg/mL (≈ 107 mM)
- solubility ([2]; aqueous co-solvent/surfactant solvent system, pH 6.5, aqueous with cosolvent or surfactant or cyclodextrin, 4% Gly, 0.04% PS80, 96.0% water, pH 6.5): 20.2 mg/mL (≈ 109 mM)
- solubility ([2]; aqueous co-solvent/surfactant solvent system, pH 6.6, aqueous with cosolvent or surfactant or cyclodextrin, 4% EtOH, 8% PG, 0.04% PS80, 88.0% phosphate buffer (5 mM), pH 6.6): 29.4 mg/mL (≈ 159 mM)
- solubility ([2]; aqueous co-solvent/surfactant solvent system, pH 6.6, aqueous with cosolvent or surfactant or cyclodextrin, 4% EtOH, 8% PG, 88.0% phosphate buffer (5 mM), pH 6.6): 27.2 mg/mL (≈ 147 mM)
- solubility ([2]; aqueous co-solvent/surfactant solvent system, pH 6.6, aqueous with cosolvent or surfactant or cyclodextrin, 8% EtOH, 0% PG, 92% phosphate buffer (5 mM), pH 6.6): 26.7 mg/mL (≈ 144 mM)
- solubility ([2]; aqueous co-solvent/surfactant solvent system, pH 6.6, aqueous with cosolvent or surfactant or cyclodextrin, 8% PG, 0.04% PS80, 92.0% water, pH 6.6): 23.2 mg/mL (≈ 125 mM)
- solubility ([2]; aqueous co-solvent/surfactant solvent system, pH 6.7, aqueous with cosolvent or surfactant or cyclodextrin, 4% EtOH, 0.04% PS80, 96.0% water, pH 6.7): 24.5 mg/mL (≈ 132 mM)
- solubility ([2]; aqueous co-solvent/surfactant solvent system, pH 6.7, aqueous with cosolvent or surfactant or cyclodextrin, 8% EtOH, 12% PG, 80% phosphate buffer (5 mM), pH 6.7): 37.7 mg/mL (≈ 204 mM)
- solubility ([2]; aqueous co-solvent/surfactant solvent system, pH 6.8, aqueous with cosolvent or surfactant or cyclodextrin, 0% EtOH, 16% PG, 84% phosphate buffer (5 mM), pH 6.8): 29.3 mg/mL (≈ 158 mM)
- solubility ([2]; aqueous co-solvent/surfactant solvent system, pH 6.8, aqueous with cosolvent or surfactant or cyclodextrin, 2% EtOH, 16% PG, 82% phosphate buffer (5 mM), pH 6.8): 31 mg/mL (≈ 167 mM)
- solubility ([2]; aqueous co-solvent/surfactant solvent system, pH 6.8, aqueous with cosolvent or surfactant or cyclodextrin, 8% EtOH, 4% PG, 88% phosphate buffer (5 mM), pH 6.8): 30.4 mg/mL (≈ 164 mM)
- solubility ([2]; aqueous co-solvent/surfactant solvent system, pH 6.8, aqueous with cosolvent or surfactant or cyclodextrin, 8% EtOH, 8% PG, 84% phosphate buffer (5 mM), pH 6.8): 35 mg/mL (≈ 189 mM)
- solubility ([2]; aqueous co-solvent/surfactant solvent system, pH 6.8, aqueous with cosolvent or surfactant or cyclodextrin, 8% EtOH, 16% PG, 76% phosphate buffer (5 mM), pH 6.8): 45.4 mg/mL (≈ 245 mM)
- solubility ([2]; aqueous co-solvent/surfactant solvent system, pH 6.9, aqueous with cosolvent or surfactant or cyclodextrin, 4% EtOH, 16% PG, 80% phosphate buffer (5 mM), pH 6.9): 36.8 mg/mL (≈ 199 mM)
- solubility ([2]; aqueous co-solvent/surfactant solvent system, pH 6.9, aqueous with cosolvent or surfactant or cyclodextrin, 6% EtOH, 16% PG, 78% phosphate buffer (5 mM), pH 6.9): 40.9 mg/mL (≈ 221 mM)
- solubility ([2]; aqueous co-solvent/surfactant solvent system, pH 7, aqueous with cosolvent or surfactant or cyclodextrin, 6% EtOH, 12% PG, 82.0% phosphate buffer (5 mM), pH 7.0): 34.7 mg/mL (≈ 187 mM)
- solubility ([2]; aqueous co-solvent/surfactant solvent system, pH 7, aqueous with cosolvent or surfactant or cyclodextrin, 8% EtOH, 16% PG, 76.0% phosphate buffer (5 mM), pH 7.0): 43.7 mg/mL (≈ 236 mM)
- solubility ([2]; citrate buffer with co-solvent, pH 4.4, aqueous buffer, 4% Gly, 96.0% citrate buffer (10 mM), pH 4.4): 19.8 mg/mL (≈ 107 mM)
- solubility ([2]; citrate buffer with co-solvent, pH 4.4, aqueous with cosolvent or surfactant or cyclodextrin, 8% PG, 92.0% citrate buffer (10 mM), pH 4.4): 23.2 mg/mL (≈ 125 mM)
- solubility ([2]; citrate buffer with co-solvent, pH 4.5, aqueous buffer, 4% EtOH, 96.0% citrate buffer (10 mM), pH 4.5): 22.3 mg/mL (≈ 120 mM)
- solubility ([2]; citrate buffer with surfactant, pH 4.5, aqueous with cosolvent or surfactant or cyclodextrin, 0.04% PS80, 100.0% citrate buffer (10 mM), pH 4.5): 19.1 mg/mL (≈ 103 mM)
- solubility ([2]; water with co-solvent, pH 4.8, water, 4% Gly, 96.0% water, pH 4.8): 20.1 mg/mL (≈ 109 mM)
- solubility ([2]; water with co-solvent, pH 5, aqueous with cosolvent or surfactant or cyclodextrin, 8% PG, 92.0% water, pH 5.0): 24.3 mg/mL (≈ 131 mM)
- solubility ([2]; water with co-solvent, pH 5, water, 4% EtOH, 96.0% water, pH 5.0): 22.8 mg/mL (≈ 123 mM)
- solubility ([2]; water with co-solvent, pH 6.7, water, 4% Gly, 96.0% water, pH 6.7): 20.1 mg/mL (≈ 109 mM)
- solubility ([2]; water with co-solvent, pH 6.8, aqueous with cosolvent or surfactant or cyclodextrin, 8% PG, 92.0% water, pH 6.8): 24.6 mg/mL (≈ 133 mM)
- solubility ([2]; water with co-solvent, pH 6.9, water, 4% EtOH, 96.0% water, pH 6.9): 24.3 mg/mL (≈ 131 mM)
- solubility ([2]; water with surfactant, pH 4.8, aqueous with cosolvent or surfactant or cyclodextrin, 0.04% PS80, 100.0% water, pH 4.8): 8.3 mg/mL (≈ 44.8 mM)
- Osmolality [3, 5]: 3672 mOsmo/Kg
- Osmolality [3, 6]: 3672 mOsmo/Kg
- Osmolality ([3]; calculated, 27.2 mg/mL pirfenidone, 4% EtOH, 8% PG, 88% phosphate buffer (5 mM), pH 6.6): ~1830* mOsmo/Kg
- Osmolality ([3]; calculated, 34.7 mg/mL pirfenidone, 6% EtOH, 12% PG, 82% phosphate buffer (5 mM), pH 7.0): ~2750* mOsmo/Kg
- Cough Response? [3, 7]: No
- Throat Irritation? [3, 7]: No
- Cough Response? [3, 8]: No
- Throat Irritation? [3, 8]: No
- Cough Response? [3, 5]: No
- Throat Irritation? [3, 5]: No
- Cough Response? [3, 6]: No
- Throat Irritation? [3, 6]: No
- Pirfenidone at Time = 0 [4]: 1.0 mg/mL
- Pirfenidone at Time = 1 month [4]: 1.0 mg/mL
